The results in this text go back to US4536335A, “Carbapenem antibiotics” (Bristol-Myers Company, priority 1983, dated 1985).

Data set [1] can be described thus: Half-life in phosphate buffer solution. In kind it is physicochemical. Particulars: phosphate buffer, pH 7.4, concentration of 10^-4 M in phosphate buffer pH 7.4 at 36.8° C.; read-out: t1/2 (solution stability) (converted). The protocol:
A solution of para-nitrobenzyl 3-[2-(N-methylthiomorpholinium diphenylphosphate)ethylthio]-6α-[1'-(R)-hydroxyethyl]-7-oxo-1-azabicyclo[3.2.0]hept-2-ene-2-carboxylate (1.31 g, 1.76 mmol) in 0.1 M pH 7.4 phosphate buffer (48.8 mL), tetrahydrofuran (20 mL) and diethyl ether (20 mL) was hydrogenated over 10% pd/C (1.5 g) in a Parr shaker for 1 h at 40 psi. The reaction mixture was diluted with diethyl ether (40 mL) and the phases were separated. The organic phase was washed with water (2×5 mL). The aqueous phases were combined, filtered through a #52 hardened filter paper, washed with diethyl ether (2×20 mL) and pumped under vacuum. The aqueous solution was poured on a silica gel reverse phase column and the desired carbapenem was eluted with 5% acetonitrile-water.
To a solution of p-nitrobenzyl (5R,6S)-3-[2-(1-methylmorpholino)ethylthio]-6-[(R)-1-hydroxyethyl]-7-oxo-1-azabicyclo[3.2.0]hept-2-ene-2-carboxylate diphenylphosphate (0.360 g, 0.49 mmol) in 13 mL of phosphate buffer (0.05 M pH 7.4) was added 0.36 g of 10% palladium-on-charcoal, 20 mL of tetrahydrofuran and 20 mL of diethyl ether. This mixture was hydrogenated (Parr) at 32 psi for 1 h. The mixture was filtered through Celite and the filter pad was washed with H2 O and diethyl ether. The aqueous phase was separated and the pH was adjusted to 7.0 with additional pH 7.4 phosphate buffer. After removing residual organic solvents in vacuo the aqueous solution was applied to a C18 reverse-phase column.
To a solution of (5R,6S)paranitrobenzyl 3-[2-(1,4-dimethyl-1-piperazinium)ethylthio]-6-[1-(R)-hydroxyethyl]-7-oxo- 1-azabicyclo[3.2.0]hept-2-ene-2-carboxylate diphenylphosphate (0.47 g, 0.623 mmol) in wet tetrahydrofuran (25 mL) was added diethyl ether (25 mL), potassium phosphate monobasic-sodium hydroxide buffer (13 mL, pH 7.22) and 10% palladium on charcoal (0.47 g). The resulting mixture was hydrogenated at 23° C. under 40 psi for 1 h. The two layers were separated and the organic layer was extracted with water (2×7 mL).
To a cold (-10° C.) solution of (5R,6S)-3-[2 -(N-methyl-thiomorpholinium)ethylthio]-6-[1-(R)-hydroxyethyl]-7-oxo-1-azabicyclo(3.2.0)-hept-2-ene-2-carboxylate (608 mg, 1.65 mmol) in a 1:1 mixture of acetonitrile-water (9 mL) was added m-chloroperbenzoic acid (334.8 mg, 1.65 mmol) in small portion over a 1 hour period. The mixture was then diluted with water (15 mL) and washed with diethyl ether (3×15 mL).
A mixture of (5R,6S) paranitrobenzyl 3-[2-(1,4,4-trimethyl-1-piperazinium)ethylthio]-6-[1R-hydroxyethyl]-7-oxo- 1-azabicyclo(3.2.0)hept-2-ene-2-carboxylate bischloride (0.40 g, 0.68 mmol), phosphate buffer (30 mL, 0.05M, pH 7.0), tetrahydrofuran (10 mL), ether (30 mL) and 10% palladium on charcoal (0.40 g) was hydrogenated at 23° C. under 35 psi for 1 h. The two phases were separated. The organic phase was extracted with water (10 mL).

For another data set, the system named is P. morganii A15153. As to the kind of experiment: In vitro MIC, tube dilution. The data set is classed as cell-based. The note with it: Morganella morganii, A15153, tube dilution, Nutrient Broth, overnight incubation at 37° C.; additional data table; read-out: MIC M. morganii A15153.
The subject of the next data set is E. cloacae A-9659. Nature of the data set: In vitro MIC, tube dilution. The data set is classed as cell-based. Particulars: Enterobacter cloacae, A9659, tube dilution, Nutrient Broth, overnight incubation at 37° C.; additional data table. The source says:
N-formimidoyl thienamycin was included as a comparison compound.

A further data set relates to K. pneumoniae A-9664. Nature of the data set: In vitro MIC, tube dilution. The data set is classed as cell-based. The note with it: Klebsiella pneumoniae, A9664, tube dilution, Nutrient Broth, overnight incubation at 37° C.; additional data table.
Another data set has as its system E. coli A15119. As to the kind of experiment: In vitro MIC, tube dilution. The data set is classed as cell-based. The note with it: Escherichia coli, A15119, tube dilution, Nutrient Broth, overnight incubation at 37° C.; additional data table.

Converted amounts (≈) assume the structure as drawn.

The term MIC denotes the smallest concentration in the dilution series that meets the test's criterion for growth inhibition.

With `C[C@@H](O)[C@H]1C(=O)N2C(C(=O)[O-])=C(SCC[N+]3(C)CCN(C)CC3)C[C@H]12` [Example 4, (5R,6S)3-[2-(1,4-dimethyl-1-piperazinium)-ethylthio]-6-[1-(R)-hydroxyethyl]-7-oxo-1-azabicyclo-[3.2.0]hept-2-ene-2-carboxylate], the half-life in data set [1] was 12.4 h. The MIC with P. morganii A15153 came to 1 µg/mL (≈ 2.71 µM); against E. cloacae A-9659, 1 µg/mL (≈ 2.71 µM); against K. pneumoniae A-9664 it was 0.25 µg/mL (≈ 0.677 µM); in the data set with E. coli A15119, 0.13 µg/mL (≈ 0.352 µM).
